Data taken from patent US20200405793A1, “USE OF […] PATHWAY INHIBITOR AND […] PREPARING ANTI-TUMOR DRUG” (GUANGZHOU VIROTECH PHARMACEUTICAL CO., LTD., priority 2017, published 2020).
“Also recorded” adds a separate entry of the source.

Assays:
[1] = test system: M1 viral proteins (structural protein E1 and non-structural protein NS3); test: Immunoblot of M1 viral proteins after statin treatment of M1-infected HCT-116 cells; assay type: cell-based, M1 virus; details: concentration not given
Protocol: (§1) a) Cell culture: human intestinal cell carcinoma strain HCT-116 was grown in a DMEM complete medium containing 10% FBS, 100 U/ml penicillin and 0.1 mg/ml streptomycin; all cell strains were cultured in a constant temperature closed incubator at 5% CO2, 37° C. (95% RH) and observed by the inverted microscope. Cells were passaged once for approximately 2-3 days and the cells in logarithmic growth phase were used for formal experiments.
Cells were infected with M1 virus (MOI=1), treated with M1 virus (MOI=1) combined with fluvastatin or atorvastatin (1 and 10 μM), and cellular proteins were harvested after 24 hours and immunoblotted.

alphavirus M1 = test: Mevalonate pathway inhibiting compounds acting on tumor cells with M1 virus: virus replication; assay type: cell-based
HCT-116 cells [2] = test: Cell morphology after fluvastatin and M1 virus treatment; assay type: cell-based, human; details: fluvastatin 2 μM, M1 virus MOI=1, 48 hours
Protocol: as §1
c) Cells were inoculated into a 24-well plate at 30,000 cells/well; after the cells were treated with fluvastatin 2 (μM), they were infected with M1 virus (MOI=1); and the changes of cell morphology were observed under the inverted phase contrast microscope after 48 hours.

[3] = test system: HCT-116, Capan-1 and SW 1990 cells; test: Cell morphology under inverted phase contrast microscope after siRNA interference of HMGCR and M1 virus infection; assay type: cell-based, human; details: HCT-116, Capan-1, SW 1990; siRNA 25 nM; M1 virus 1 MOI; 48 h after infection
Protocol: (§2) The cells were inoculated into a 35 mm culture dish, cultured until the confluence degree of the cells reaches 60% and subjected to the following interference treatment: firstly, a Lipofectamine RNAiMAX solution was prepared with Opti-MEM by diluting according to 2 μL: 198 μL per culture dish and uniformly mixing; secondly, an siRNA solution was prepared with Opti-MEM by diluting according to 1.8 μL: 198 μL per culture dish, wherein the final concentration of siRNA was 25 nM, and mixing gently; finally, the diluted Lipofectamine RNAiMAX and siRNA were mixed, and stood for 15 minutes at room temperature; the mixed solution was added into a culture dish containing 1.5 mL of serum-free culture medium; and the medium was changed to a complete medium after 24 hours, and infected with M1 virus (1MOI). The changes in cell morphology were observed after 48 h under the inverted phase contrast microscope.

[4] = test system: M1 virus structural protein E1 and nonstructural protein NS3; test: Immunoblot of M1 viral proteins after siRNA interference of mevalonate pathway genes; assay type: cell-based; details: HCT-116; siRNA HMGCR, SQLE, FNTB, PGGT1B, RABGGTB 25, 25, 4, 20, 20 nM; M1 1 MOI; 24 hours
Protocol: as §2, with “interfering HMGCR, SQLE, FNTB, PGGT 1B and RABGGTB (specifically see FIG. 9 and the description of the Figures) were 25, 25, 4, 20 and 20 nM respectively,” for “was 25 nM,”, “Cell lysates” for “The changes in cell morphology”, “collected” for “observed”, “24 hours and immunoblotted.” for “48 h under the inverted phase contrast microscope.”

HCT-116 cells [5] = test: MTT cell viability, Tipifarnib and M1 virus; assay type: cell-based, human; details: Tipifarnib 50 nM, M1 virus MOI=1, 48 h
Text: (§3) Each group of experiments was repeated 3 times.

SW1990 cells = test: MTT cell viability, Tipifarnib and M1 virus; assay type: cell-based, human; details: Tipifarnib 50 nM, M1 virus MOI=1, 48 h
Text: as §3

[6] = test system: HCT-116 or SW 1990 transplanted tumors; test: Growth of subcutaneous transplanted tumors in nude mice; assay type: in vivo, BALB/c nude mice; details: Tipifarnib 500 μg/kg/d i.p.; M1 2×10^9 PFU/kg/d tail vein; 6 consecutive injections; vs control group; both tumor models
Protocol: This experiment used a randomized, single-blind design. 5×10^6 HCT-116 or SW 1990 cells were injected subcutaneously into the dorsal flank of the 4 week old BALB/c nude mouse.
When the tumor size reached 50 mm3, the mice were divided into […], including untreated control group, Tipifarnib alone group (500 μg/kg/d by intraperitoneal injection), M1 infection alone group (2×10^9 PFU/kg/d by tail vein injection of M1 virus) and Tipifarnib/M1 combined group (same dose of Tipifarnib and M1 virus), and treated with 6 consecutive injections. The length, width and weight of the tumor were measured every two days, and the volume of the tumor was measured according to the formula (length×width^2)/2. One way ANOVA was performed after measuring tumor volume, ***indicates p<0.001.

Row | Compound | expression of M1 virus protein [1] | replication of the alphavirus M1 (alphavirus M1) | other results
1 | atorvastatin | significantly increase the protein expression of M1 virus; also recorded: promote the expression of M1 virus protein | promote replication of the alphavirus Ml | 
2 | COC(=O)[C@H](CCSC)NC(=O)c1ccc(NC[C@@H](N)CS)cc1-c1ccccc1.O=C(O)C(F)(F)F [FTI277] |  | promote replication of the alphavirus Ml | 
3 | CC(C)n1c(/C=C/[C@@H](O)C[C@@H](O)CC(=O)[O-])c(-c2ccc(F)cc2)c2ccccc21.[Na+] [fluvastatin] | significantly increase the protein expression of M1 virus; also recorded: promote the expression of M1 virus protein | promote replication of the alphavirus Ml | changes of cell morphology (HCT-116 cells [2]): induced lesions in a small number of cells
4 | AACCCAAUGCCCAUGUUCCdTdT (as printed in the source, key not given here) [siRNA targeting HMGCR, siRNA interfering the HMG-CoA reductase gene (HMGCR)] |  |  | changes in cell morphology [3]: did not affect the morphology of tumor cells; expression of structural protein E1 and nonstructural protein NS3 of the virus [4]: increased significantly; also recorded: significantly increase the protein expression of M1 virus
5 | Cn1cncc1[C@@](N)(c1ccc(Cl)cc1)c1ccc2c(c1)c(-c1cccc(Cl)c1)cc(=O)n2C [Tipifarnib] |  | promote replication of the alphavirus Ml | tumor cell survival rate (HCT-116 cells [5]): 80%; tumor cell survival rate (SW1990 cells): 90%; tumor volume [6]: only a slight reduction in tumor volume
